The text below walks through data of patent publication US20240270821A1, “GIP/GLP1/GCG TRI-RECEPTOR AGONISTS AND USES THEREOF” (priority 2023, published 2024).

Structures are written as SMILES. pEC50: −log10 of the molar value. Starred links: 1 amine or outer side, 2 acyl side, 3 side chain; linkers in the order of their positions; H or OH if unused. Non-standard residues stand in square brackets, D forms with d. Residues, ends and D or L forms follow the SMILES beside them. Groups on a side chain read outwards from the residue. *: point of attachment. C18 diacid = O=C(O)CCCCCCCCCCCCCCCCC(=O)*; αMePhe(2-F) = C[C@](N)(Cc1ccccc1F)C(=O)O; γGlu = O=C(O)[C@H](CCC(=O)[*:2])N[*:1]; 4Pal = N[C@@H](Cc1ccncc1)C(=O)O; AEEA = NCCOCCOCC(=O)O; Aib = CC(C)(N)C(=O)O

Holding throughout (format): cell-based
For one experiment, the target named is hGcgR (Homo sapiens, UniProt P47871). Description: Functional cAMP activation in the presence of 0.1% casein (no HSA). As to conditions: read-out: Relative cAMP EC50, hGcgR.
In another experiment the target is human GcgR (Homo sapiens, UniProt P47871). Kind of experiment: Functional cAMP activity in the presence of 1% HSA. As to conditions: read-out: cAMP Rel EC50, hGcgR.
Experiment [1] has as its target T1, hGLP-1R (Homo sapiens, UniProt P43220). Description: Functional cAMP activation in the presence of 0.1% casein (no HSA). As to conditions: read-out: Relative cAMP EC50, hGLP-1R.
Experiment [2] deals with T1, hGLP-1R. Kind of experiment: Functional cAMP activity in the presence of 1% HSA. As to conditions: read-out: cAMP Rel EC50, hGLP-1R.
The target in experiment [3] is T2, hGIPR (Homo sapiens, UniProt P48546).
T2 sequence (P48546 22-466): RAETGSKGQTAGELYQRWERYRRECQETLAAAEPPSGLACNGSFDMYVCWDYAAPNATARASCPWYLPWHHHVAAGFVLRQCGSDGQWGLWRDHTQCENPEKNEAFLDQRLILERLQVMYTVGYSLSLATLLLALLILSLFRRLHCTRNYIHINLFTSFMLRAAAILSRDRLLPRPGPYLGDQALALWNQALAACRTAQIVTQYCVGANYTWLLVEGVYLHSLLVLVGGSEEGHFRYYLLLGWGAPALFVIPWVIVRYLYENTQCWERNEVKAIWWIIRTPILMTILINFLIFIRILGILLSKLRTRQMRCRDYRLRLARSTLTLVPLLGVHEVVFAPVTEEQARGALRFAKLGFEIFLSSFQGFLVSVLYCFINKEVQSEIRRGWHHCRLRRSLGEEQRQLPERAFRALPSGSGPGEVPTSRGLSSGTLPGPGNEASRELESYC
Kind of experiment: Functional cAMP activation in the presence of 0.1% casein (no HSA). As to conditions: read-out: Relative cAMP EC50, hGIPR.

Experiment [4] concerns the target T2, hGIPR. Description: Functional cAMP activity in the presence of 1% HSA. As to conditions: read-out: cAMP Rel EC50, hGIPR.

As a reminder, the pEC50 is −log10 of the EC50, conventionally taken in molar units.
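Throughout, for Relative cAMP EC50, hGIPR: intracellular cAMP rise after 30 min at 37 °C read by HTRF against a standard curve, scaled between buffer alone (0%) and top control ligand concentration (100%), four-parameter fit.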
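Throughout, for Relative cAMP EC50, hGLP-1R: intracellular cAMP rise after 30 min at 37 °C read by HTRF, normalized between buffer only (0%) and maximal control ligand (100%), four-parameter variable-slope fit.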
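Throughout, for Relative cAMP EC50, hGcgR: intracellular cAMP rise after 30 min at 37 °C, read by HTRF against a cAMP standard curve, scaled from buffer only (0%) to maximal control ligand response (100%).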

T1 sequence (P43220 24-463): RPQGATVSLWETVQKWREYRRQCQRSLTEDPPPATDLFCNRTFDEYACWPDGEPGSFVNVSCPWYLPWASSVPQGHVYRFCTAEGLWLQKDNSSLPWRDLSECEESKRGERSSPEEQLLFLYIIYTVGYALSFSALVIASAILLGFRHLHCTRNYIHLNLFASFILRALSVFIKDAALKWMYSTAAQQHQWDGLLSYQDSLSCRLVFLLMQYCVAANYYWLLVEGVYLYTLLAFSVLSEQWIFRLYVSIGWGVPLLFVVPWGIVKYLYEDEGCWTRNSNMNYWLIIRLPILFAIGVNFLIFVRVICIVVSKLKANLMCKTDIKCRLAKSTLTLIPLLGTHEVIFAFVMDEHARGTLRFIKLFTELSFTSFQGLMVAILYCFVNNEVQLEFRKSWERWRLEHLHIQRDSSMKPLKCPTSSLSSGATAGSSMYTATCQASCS
hGcgR, sequence (P47871 26-477): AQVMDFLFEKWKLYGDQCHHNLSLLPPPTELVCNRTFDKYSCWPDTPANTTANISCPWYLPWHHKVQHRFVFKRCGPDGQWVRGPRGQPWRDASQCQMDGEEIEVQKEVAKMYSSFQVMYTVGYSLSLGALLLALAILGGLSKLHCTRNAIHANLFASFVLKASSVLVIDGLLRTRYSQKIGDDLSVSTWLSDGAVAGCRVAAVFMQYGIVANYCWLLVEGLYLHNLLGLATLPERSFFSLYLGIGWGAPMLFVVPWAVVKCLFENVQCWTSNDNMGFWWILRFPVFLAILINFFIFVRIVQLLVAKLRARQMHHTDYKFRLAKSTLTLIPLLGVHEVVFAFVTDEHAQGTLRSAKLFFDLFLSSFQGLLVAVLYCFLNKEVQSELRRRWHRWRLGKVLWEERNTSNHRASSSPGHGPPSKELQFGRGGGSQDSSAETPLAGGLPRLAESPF
human GcgR, sequence (P47871 26-477): as above

As for `CC[C@H](C)[C@H](NC(=O)[C@H](Cc1ccccc1)NC(=O)[C@H](C)NC(=O)C(C)(C)NC(=O)[C@H](CCC(N)=O)NC(=O)[C@H](C)NC(=O)[C@H](CCCCNC(=O)CC[C@H](NC(=O)CC[C@H](NC(=O)CCCCCCCCCCCCCCCCC(=O)O)C(=O)O)C(=O)O)NC(=O)[C@H](CCCCN)NC(=O)[C@H](CC(=O)O)NC(=O)[C@H](CC(C)C)NC(=O)[C@H](CC(C)C)NC(=O)[C@@H](NC(=O)[C@H](CO)NC(=O)[C@H](Cc1ccc(O)cc1)NC(=O)[C@H](CC(=O)O)NC(=O)[C@H](CO)NC(=O)[C@@H](NC(=O)[C@](C)(Cc1ccccc1F)NC(=O)[C@@H](NC(=O)CNC(=O)[C@H](CCC(N)=O)NC(=O)C(C)(C)NC(=O)[C@@H](N)Cc1ccc(O)cc1)[C@@H](C)O)[C@@H](C)O)[C@@H](C)CC)C(=O)N[C@@H](CCC(=O)O)C(=O)N[C@@H](Cc1ccc(O)cc1)C(=O)N[C@@H](CC(C)C)C(=O)N[C@@H](CCC(=O)O)C(=O)N[C@@H](CCC(=O)O)C(=O)NCC(=O)NCC(=O)N1CCC[C@H]1C(=O)N[C@@H](CO)C(=O)N[C@@H](CO)C(=O)NCC(=O)N[C@@H](C)C(=O)N1CCC[C@H]1C(=O)N1CCC[C@H]1C(=O)N1CCC[C@H]1C(=O)N[C@@H](CO)C(N)=O` [Example 406] (H-Y[Aib]QGT[αMePhe(2-F)]TSDYSILLDKK([γGlu-γGlu-C18 diacid])AQ[Aib]AFIEYLEEGGPSSGAPPPS-NH2), the pEC50 on hGcgR is 8.91; at human GcgR, 6.60; on hGLP-1R [1], 9.68; at hGLP-1R [2] it was 7.56; on hGIPR [3] it was 10.63; at hGIPR [4], 7.98.
Turning to `CC[C@H](C)[C@H](NC(=O)[C@H](Cc1ccccc1)NC(=O)[C@H](C)NC(=O)C(C)(C)NC(=O)[C@H](CCC(N)=O)NC(=O)[C@H](C)NC(=O)[C@H](CCCCNC(=O)COCCOCCNC(=O)CC[C@H](NC(=O)CCCCCCCCCCCCCCCCC(=O)O)C(=O)O)NC(=O)[C@H](CCCCN)NC(=O)[C@H](CC(=O)O)NC(=O)[C@H](CC(C)C)NC(=O)[C@H](CC(C)C)NC(=O)[C@@H](NC(=O)[C@H](CO)NC(=O)[C@H](Cc1ccc(O)cc1)NC(=O)[C@H](CC(=O)O)NC(=O)[C@H](CO)NC(=O)[C@@H](NC(=O)[C@](C)(Cc1ccccc1F)NC(=O)[C@@H](NC(=O)CNC(=O)[C@H](CCC(N)=O)NC(=O)C(C)(C)NC(=O)[C@@H](N)Cc1ccc(O)cc1)[C@@H](C)O)[C@@H](C)O)[C@@H](C)CC)C(=O)N[C@@H](CCC(=O)O)C(=O)N[C@@H](Cc1ccc(O)cc1)C(=O)N[C@@H](CC(C)C)C(=O)N[C@@H](CCC(=O)O)C(=O)N[C@@H](CCC(=O)O)C(=O)NCC(=O)NCC(=O)N1CCC[C@H]1C(=O)N[C@@H](CO)C(=O)N[C@@H](CO)C(=O)NCC(=O)N[C@@H](CCC(=O)O)C(=O)N1CCC[C@H]1C(=O)N1CCC[C@H]1C(=O)N1CCC[C@H]1C(=O)N[C@@H](CO)C(N)=O` [Example 407], the pEC50 on hGcgR was 8.83; on human GcgR, 6.31; at hGLP-1R [1], 9.59; on hGLP-1R [2] it was 7.43; on hGIPR [3] it was 10.44; at hGIPR [4], 7.93.
With `CC[C@H](C)[C@H](NC(=O)[C@H](Cc1ccccc1)NC(=O)[C@H](C)NC(=O)C(C)(C)NC(=O)[C@H](CCC(N)=O)NC(=O)[C@H](C)NC(=O)[C@H](CCCCNC(=O)COCCOCCNC(=O)CC[C@H](NC(=O)CCCCCCCCCCCCCCCCC(=O)O)C(=O)O)NC(=O)[C@H](CCCCN)NC(=O)[C@H](CC(=O)O)NC(=O)[C@H](CC(C)C)NC(=O)[C@H](CC(C)C)NC(=O)[C@H](CO)NC(=O)[C@H](CO)NC(=O)[C@H](Cc1ccc(O)cc1)NC(=O)[C@H](CC(=O)O)NC(=O)[C@H](CO)NC(=O)[C@@H](NC(=O)[C@](C)(Cc1ccccc1F)NC(=O)[C@@H](NC(=O)CNC(=O)[C@H](CCC(N)=O)NC(=O)C(C)(C)NC(=O)[C@@H](N)Cc1ccc(O)cc1)[C@@H](C)O)[C@@H](C)O)C(=O)N[C@@H](CCC(=O)O)C(=O)N[C@@H](Cc1ccc(O)cc1)C(=O)N[C@@H](CC(C)C)C(=O)N[C@@H](CCC(=O)O)C(=O)N[C@@H](CCC(=O)O)C(=O)NCC(=O)NCC(=O)N1CCC[C@H]1C(=O)N[C@@H](CO)C(=O)N[C@@H](CO)C(=O)NCC(=O)N[C@@H](C)C(=O)N1CCC[C@H]1C(=O)N1CCC[C@H]1C(=O)N1CCC[C@H]1C(=O)N[C@@H](CO)C(N)=O` [Example 409] (H-Y[Aib]QGT[αMePhe(2-F)]TSDYSSLLDKK([AEEA-γGlu-C18 diacid])AQ[Aib]AFIEYLEEGGPSSGAPPPS-NH2), the pEC50 was 8.10 at hGcgR; 5.92 on human GcgR; 9.32 at hGLP-1R [1]; 7.38 on hGLP-1R [2]; 9.44 on hGIPR [3]; 7.18 on hGIPR [4].
As to `CC[C@H](C)[C@H](NC(=O)[C@H](Cc1ccccc1)NC(=O)[C@H](C)NC(=O)C(C)(C)NC(=O)[C@H](CCC(N)=O)NC(=O)[C@H](C)NC(=O)[C@H](CCCCNC(=O)CC[C@H](NC(=O)CC[C@H](NC(=O)CCCCCCCCCCCCCCCCC(=O)O)C(=O)O)C(=O)O)NC(=O)[C@H](CCCCN)NC(=O)[C@H](CC(=O)O)NC(=O)[C@H](CC(C)C)NC(=O)[C@H](CC(C)C)NC(=O)[C@@H](NC(=O)[C@H](CO)NC(=O)[C@H](Cc1ccncc1)NC(=O)[C@H](CC(=O)O)NC(=O)[C@H](CO)NC(=O)[C@@H](NC(=O)[C@](C)(Cc1ccccc1F)NC(=O)[C@@H](NC(=O)CNC(=O)[C@H](CCC(N)=O)NC(=O)C(C)(C)NC(=O)[C@@H](N)Cc1ccc(O)cc1)[C@@H](C)O)[C@@H](C)O)[C@@H](C)CC)C(=O)N[C@@H](CCC(=O)O)C(=O)N[C@@H](Cc1ccc(O)cc1)C(=O)N[C@@H](CC(C)C)C(=O)N[C@@H](CCC(=O)O)C(=O)N[C@@H](CCC(=O)O)C(=O)NCC(=O)NCC(=O)N1CCC[C@H]1C(=O)N[C@@H](CO)C(=O)N[C@@H](CO)C(=O)NCC(=O)N[C@@H](C)C(=O)N1CCC[C@H]1C(=O)N1CCC[C@H]1C(=O)N1CCC[C@H]1C(=O)N[C@@H](CO)C(N)=O` [Example 413] (H-Y[Aib]QGT[αMePhe(2-F)]TSD[4Pal]SILLDKK([γGlu-γGlu-C18 diacid])AQ[Aib]AFIEYLEEGGPSSGAPPPS-NH2), the pEC50 is 8.20 on hGcgR; 6.20 on human GcgR; 9.25 at hGLP-1R [1]; 7.38 at hGLP-1R [2]; 10.06 at hGIPR [3]; 7.63 at hGIPR [4].
